For 16 compounds, TGI results are on record in PubChem BioAssay (NCI).

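48-hour exposure; five concentrations; linearly interpolated endpoints. TGI: total growth inhibition.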 A value given as a limit tells only on which side of the number the result lay.

Among the test systems are CAKI-1 renal; DLD-1 colon; DMS 114 small cell lung; DMS 273 small cell lung; HOP-18 NSCLC; IGROV1 ovarian; KM20L2 colon; M19-MEL melanoma; MCF7 breast; NCI-H226 lung; NCI/ADR-RES ovarian; P388 leukemia; SN12C renal; SN12K1 renal; SNB-78 CNS; XF 498 CNS; ACHN renal; M14 melanoma; TK-10 renal; SR leukemia.
What all share (assay): NCI tumour cell line growth inhibition, 48 h

For the compound `CCNC(=O)C(C)C1CCC2(C)C=CC(=O)C(C)=C2C1O` (configuration not stated), the TGI in the test with CAKI-1 renal, in the test on DLD-1 colon, with DMS 114 small cell lung, with DMS 273 small cell lung, in the test with HOP-18 NSCLC and in the test on IGROV1 ovarian was more than 100 µM each time. For the same compound, the TGI with KM20L2 colon, in the test with M19-MEL melanoma, in the test on MCF7 breast, with NCI-H226 lung, in the test on NCI/ADR-RES ovarian and in the test with P388 leukemia was more than 100 µM each time. Further, the TGI in the test on SN12C renal, with SN12K1 renal, with SNB-78 CNS and in the test on XF 498 CNS was more than 100 µM in each case.

As for `CCOC(=O)Cc1cc(OC)c(OC)cc1/C(Cl)=C(\CO)c1ccc(OC)c(OC)c1`, the TGI in the test with ACHN renal, in the test on CAKI-1 renal, with DLD-1 colon, with DMS 114 small cell lung, with DMS 273 small cell lung and in the test on HOP-18 NSCLC was more than 100 µM in each case. Moreover, the TGI with IGROV1 ovarian, with KM20L2 colon, in the test on M14 melanoma, in the test with M19-MEL melanoma, in the test with SN12C renal and in the test on SNB-78 CNS was more than 100 µM in each case. The TGI with TK-10 renal is more than 100 µM; with XF 498 CNS, 49.2 µM.

Turning to `O=C1C(Cl)N(c2c(Cl)cccc2Cl)C1c1c[nH]c2ccccc12` (configuration not stated), the TGI in the test on DLD-1 colon, in the test on IGROV1 ovarian, with KM20L2 colon, in the test with M14 melanoma, with M19-MEL melanoma and with SN12C renal was more than 100 µM in each case. The TGI with SR leukemia, in the test with TK-10 renal and in the test on XF 498 CNS was more than 100 µM each time.

For `C[N+](C)(CCCCCC[N+](C)(C)CCCN1C(=O)c2cccc3cccc(c23)C1=O)CCCN1C(=O)c2cccc3cccc(c23)C1=O`, the TGI in the test on ACHN renal, with CAKI-1 renal, in the test with IGROV1 ovarian, in the test on MCF7 breast, with NCI/ADR-RES ovarian and in the test with SN12C renal was more than 100 µM throughout. For the same compound, the TGI in the test on SR leukemia and in the test on TK-10 renal was more than 100 µM in each case.

Take `N#C/C(=C\c1ccncc1)c1csc2ccccc12`: the TGI was more than 88 µM with CAKI-1 renal; 96.9 µM in the test on DLD-1 colon; 73.6 µM with DMS 273 small cell lung; 99.7 µM in the test with HOP-18 NSCLC; 97.4 µM with IGROV1 ovarian; 54.6 µM in the test on KM20L2 colon. Besides, the TGI in the test with M19-MEL melanoma is more than 91.2 µM; in the test with MCF7 breast, more than 96.7 µM; in the test with NCI-H226 lung, more than 77.1 µM; with NCI/ADR-RES ovarian, 61.8 µM; with P388 leukemia, 39.2 µM; in the test with SN12C renal, more than 74.8 µM. Also, the TGI with SN12K1 renal is more than 77.7 µM; with SNB-78 CNS it was 73.8 µM; with XF 498 CNS, 46.3 µM.

Take `OCC1O[C@H](O[C@@H]2CCCN3CC(O)C(O)[C@@H]23)C(O)C(O)C1O` (some centres not stated): the TGI with ACHN renal, in the test with CAKI-1 renal, with DLD-1 colon, in the test on DMS 273 small cell lung, with HOP-18 NSCLC and in the test with IGROV1 ovarian was more than 100 µM throughout. For the same compound, the TGI with KM20L2 colon, in the test on M14 melanoma, in the test with M19-MEL melanoma, in the test on NCI-H226 lung, in the test with SN12C renal and with SNB-78 CNS was more than 100 µM throughout. Besides, the TGI with SR leukemia and in the test with TK-10 renal was more than 100 µM each time.

Take `O=C(Nc1ccc([N+](=O)[O-])cc1)Nn1cnnc1`: the TGI was more than 100 µM in the test on ACHN renal; more than 100 µM with CAKI-1 renal; more than 100 µM in the test with IGROV1 ovarian; more than 100 µM with M14 melanoma; more than 100 µM with MCF7 breast; 2.31 µM in the test on NCI-H226 lung. Besides, the TGI in the test with SR leukemia and with TK-10 renal was more than 100 µM each time.

Take `S=c1sc2c(s1)SC(c1ccccc1)CS2` (configuration not stated): the TGI in the test with CAKI-1 renal, with DLD-1 colon, with DMS 114 small cell lung, with DMS 273 small cell lung, in the test on HOP-18 NSCLC and in the test with IGROV1 ovarian was more than 100 µM throughout. The TGI in the test on KM20L2 colon, with M19-MEL melanoma, in the test on MCF7 breast, in the test with NCI-H226 lung, in the test with NCI/ADR-RES ovarian and with P388 leukemia was more than 100 µM each time. For the same compound, the TGI in the test on SN12C renal, with SN12K1 renal and in the test with SNB-78 CNS was more than 100 µM in each case.

With `OCC#CCNCl`, the TGI with DLD-1 colon, with DMS 114 small cell lung, in the test on DMS 273 small cell lung, in the test with HOP-18 NSCLC, with IGROV1 ovarian and in the test on KM20L2 colon was more than 100 µM throughout. Besides, the TGI in the test with M19-MEL melanoma, in the test on MCF7 breast, with NCI-H226 lung, with NCI/ADR-RES ovarian, in the test with P388 leukemia and in the test on SN12C renal was more than 100 µM each time. In addition, the TGI with SN12K1 renal is more than 100 µM; in the test on SNB-78 CNS it was more than 100 µM; with XF 498 CNS it was more than 95.2 µM.

For the compound `O=[N+]([O-])C(=C/c1ccccc1)/C(=C\c1ccccc1)[N+](=O)[O-]`, the TGI in the test with ACHN renal worked out at 30.6 µM; in the test with CAKI-1 renal, 29 µM; in the test on IGROV1 ovarian it was 33.4 µM; in the test with M14 melanoma, 41.6 µM; in the test on MCF7 breast, 34.4 µM; in the test with NCI-H226 lung, 47.3 µM. Further, the TGI in the test on NCI/ADR-RES ovarian came to 42.8 µM; in the test with SN12C renal, 49.4 µM; in the test with TK-10 renal, 29.6 µM.

Regarding `C/C(=C/C(=O)Nc1ccccc1)Nc1onc(C)c1C`, the TGI in the test on DLD-1 colon, in the test with DMS 114 small cell lung, in the test with DMS 273 small cell lung, in the test on HOP-18 NSCLC, in the test on IGROV1 ovarian and with KM20L2 colon was more than 100 µM in each case. Further, the TGI in the test on M19-MEL melanoma, in the test with MCF7 breast, with NCI-H226 lung, with NCI/ADR-RES ovarian, in the test on P388 leukemia and in the test with SN12C renal was more than 100 µM in each case. The TGI in the test on SN12K1 renal, in the test with SNB-78 CNS and in the test on XF 498 CNS was more than 100 µM each time.

As to `O=NN1C(c2ccccc2)CNC(=O)CC1c1ccccc1` (configuration not stated), the TGI with CAKI-1 renal is more than 100 µM; in the test with DLD-1 colon it was more than 100 µM; in the test on DMS 114 small cell lung, 59.3 µM; in the test with DMS 273 small cell lung, more than 100 µM; in the test on HOP-18 NSCLC, more than 100 µM; in the test with IGROV1 ovarian, more than 100 µM. Moreover, the TGI in the test on KM20L2 colon is 63.5 µM; in the test with M19-MEL melanoma it was more than 100 µM; in the test with MCF7 breast it was more than 100 µM; in the test with NCI-H226 lung it was more than 100 µM; in the test with NCI/ADR-RES ovarian, more than 64.6 µM; in the test on P388 leukemia, 62.3 µM. Besides, the TGI in the test on SN12C renal, in the test with SN12K1 renal and in the test on SNB-78 CNS was more than 100 µM in each case.

Consider `FC(F)(F)c1ccc2c(c1)N(CCCNCCN1CCOCC1)c1ccccc1S2`, for which the TGI with ACHN renal came to 24.7 µM; in the test with DLD-1 colon, 33.7 µM; in the test on DMS 273 small cell lung, 36.7 µM; with IGROV1 ovarian, 33.5 µM; with KM20L2 colon, 17 µM; in the test on M14 melanoma it was 4.13 µM. Also, the TGI is 22.5 µM in the test with M19-MEL melanoma; 26.9 µM in the test on SN12C renal; 23.8 µM with SNB-78 CNS; 21.8 µM with SR leukemia; 25.4 µM in the test on TK-10 renal; 15.2 µM with XF 498 CNS.

As for `CC(C)(O)/C1=C/C=C/CCCCCCCCCC1`, the TGI with ACHN renal, with CAKI-1 renal, in the test with IGROV1 ovarian, in the test on M14 melanoma, in the test with MCF7 breast and in the test with NCI-H226 lung was more than 100 µM in each case. Further, the TGI in the test with NCI/ADR-RES ovarian, in the test with SN12C renal, in the test with SR leukemia and in the test with TK-10 renal was more than 100 µM each time.

In the case of `COc1cc(OC2OC(CO)C(O)C(O)C2O)c2c(O)c3c(=O)cc(C)oc3cc2c1` (configuration not stated), the TGI in the test on ACHN renal, with CAKI-1 renal, in the test with IGROV1 ovarian, in the test with M14 melanoma, with MCF7 breast and with NCI-H226 lung was more than 100 µM throughout. Besides, the TGI in the test with TK-10 renal was more than 100 µM.

As to `O=S(O)CCCCCSSc1ccccc1`, the TGI was more than 100 µM in the test with ACHN renal; more than 100 µM with DLD-1 colon; 66.6 µM in the test on DMS 114 small cell lung; more than 100 µM with M14 melanoma; more than 100 µM in the test with M19-MEL melanoma; more than 100 µM in the test with SN12C renal. In addition, the TGI is more than 100 µM with SNB-78 CNS, 35 µM with SR leukemia, more than 100 µM in the test on TK-10 renal and 72.3 µM with XF 498 CNS.
